Results taken from patent US10336746B1, “RAD51 inhibitors” (Cyteir Therapeutics, Inc., priority 2017, dated 2019).
Where two headings read alike, the source gives them in different places.

Legend:
[1] = tested on: Daudi cell line (AID positive); experiment: Primary screening cell killing assay, Daudi cell line (AID positive); type: cell-based; details: Homo sapiens, 168 h, cell death on Day 7, Cell-Titer Glo
Procedure: Primary screening was a phenotypic screen that utilized the synthetic lethal interaction between AID and RAD51 to identify compounds that were both potent and on target. AID expressing cells are dependent upon RAD51 for survival; inhibiting RAD51 in AID positive cells results in a cytotoxic effect.
The first step was to set up a cell killing assay in the Daudi cell line (AID positive). A 96 well u-bottom plate was prepared by writing the experiment number, plate number, date and initials in the top right corner of the plate lid. With a sterile 300 ml reservoir, and 25 ml serological pipette, evaporation buffer media was pipetted into reservoir in 25 ml increments. Using the liquid handler, 150 ul of evaporation buffer media was pipetted from reservoir into rows A and H, and Columns 1 and 12 of the 96 well u-bottom plate. Cell cultures were counted to obtain the density of cells per ml, and the culture viability. The cell density information was used to obtain 1,000,000 cells from culture using a 5 mL serological pipette into an epi tube. The cell density information from the culture was used to calculate the number of cells and volume of media needed for the assay to seed 1250 cells in 130 ul of media per available culture well in the 96 well u-bottom plate. Rows B through F were used for cells (50 wells in total), with row G left for an empty media control. The calculation was overestimated by 10 mL to account for the dead volume in the 300 ml reservoir. Once the media volume was calculated, the appropriate volume of media was pipetted in 25 mL increments into the 250 mL bottle using a 25 mL serological pipette. The 250 ml bottle was capped tightly, and placed into a 37° C. water bath for 2 minutes. While the culture media was warming, 10 mL of fresh media was pipetted from the 500 mL culture media bottle into a sterile 25 mL reservoir. Using the Eppendorf multichannel pipette, 130 ul of media was pipetted from the 25 mL reservoir into row G of the 96 well u-bottom plate. Once the 250 mL bottle of media was warmed, the volume of culture needed was pipetted into the bottle, and mixed gently with a 25 mL serological pipette as to not create bubbles, and then the contents of the bottle were pipetted into a new 300 mL reservoir. Using the liquid handler, 130 ul of culture was pipetted from the 300 mL reservoir into rows B through F of the 96 well u-bottom plate. Once the culture was added, the plate was placed into a 37° C. incubator until the compound master plate was prepared for use.
Two 96 well u-bottom plates were prepared by writing the master plate name in the upper right corner of the plate lid. Labeling one DMSO master and the other Media Master. The compounds of interest were obtained from the laboratory freezer, and placed into a 25 well storage box with a lid, and set the box aside. The compounds were vortexed after thawing but before use. Using an automatic multichannel pipette, 20 ul of 100% DMSO was pipetted into wells B3-B11 through G3-G11 of the DMSO master plate. For each compound on the master plate, 50 ul of the compound were pipetted in the appropriate well of row 2 (reference plate map to determine appropriate well). A serial dilution was prepared beginning by aspirating 20 ul from row 2 and mixing with row 3, repeating until row 11 was reached. Using the liquid handler, 194 ul of Daudi media was dispensed into wells B2-B11 through G2-G11 of the Media master plate. Using the liquid handler, 6 ul from the DMSO master plate was aspirated and dispensed into the media master plate, mixing 100 ul twice.
Compounds from master plate were then added to the culture plate. The culture plates were removed from the incubator, and set inside the biosafety cabinet. Using a liquid handler, 20 ul from wells B2 to B11 through G2 to G11 of master plate were aspirated, and dispensed into wells B2 to B11 through G2 to G11 of culture plate. This set was continued with each culture plate. […]

[2] = Bi-directional Caco-2 permeability; type: in vitro ADME; details: human
Procedure: Bi-directional Caco-2 permeability was assayed. Caco-2 cells were seeded onto permeable polycarbonate supports and allowed to differentiate for about 3 weeks prior to being used in the assays. The cells were then exposed to the compounds from either the apical or basolateral sides and incubated at 37 C for up to 90 minutes under light agitation. Compound transport was then measured using LC/MS/MS analysis at 30, 60, and 90 minutes.

| SMILES | EC50 [1] | further results |
| --- | --- | --- |
| CC(C)OC(=O)Nc1ccc(-c2cnc(N3CCC(NC(=O)OC(C)C)CC3)s2)c(S(=O)(=O)NC(C)(C)C)c1 [Ex. 69, isopropyl N-[1-[5-[2-(tert-butylsulfamoyl)-4-(isopropoxycarbonylamino)phenyl]thiazol-2-yl]-4-piperidyl]carbamate] | > 1 µM | – |
| CC(C)OC(=O)Nc1ccc(-c2cnc(C3CCC(NC(=O)OC[C@H]4CCCN4C)CC3)s2)c(S(=O)(=O)NC(C)(C)C)c1 (stereo partly drawn) [Ex. 8, [(2R)-1-methylpyrrolidin-2-yl]methyl N-[4-[5-[2-(tert-butylsulfamoyl)-4-(isopropoxycarbonylamino)phenyl]thiazol-2-yl]cyclohexyl]carbamate] | > 1 µM | – |
| CC(C)OC(=O)N[C@H]1CC[C@H](c2ncc(-c3ccc(NC(=O)OC[C@H]4CCCN4C)cc3S(=O)(=O)NC(C)(C)C)s2)CC1 [Ex. 34, isopropyl ((1R,4r)-4-(5-(2-(N-(tert-butyl)sulfamoyl)-4-(((((R)-1-methylpyrrolidin-2-yl)methoxy)carbonyl)amino)phenyl)thiazol-2-yl)cyclohexyl)carbamate] | 0.1 to 1 µM | recovery at 90 min ([2]; Caco-2, Caco-2, AB direction, read-out: AB Recovery %): 98.2%; recovery at 90 min ([2]; Caco-2, Caco-2, BA direction, read-out: BA Recovery %): 96.8%; efflux ratio at 90 min ([2]; Caco-2, read-out: BA/AB Ratio): 104; Papp A→B at 90 min ([2]; Caco-2, apical to basolateral, 37 C, up to 90 minutes, read-out: AB Papp (cm/sec × 10^6)): 0.4 ×10⁻⁶ cm/s; Papp B→A at 90 min ([2]; Caco-2, basolateral to apical, 37 C, up to 90 minutes, read-out: BA Papp (cm/sec × 10^6)): 45.2 ×10⁻⁶ cm/s |
| CC(C)OC(=O)NC1CCC(c2ncc(-c3ccc(NC(=O)OC[C@@H]4CCCN4)cc3S(=O)(=O)NC(C)(C)C)s2)CC1 (stereo partly drawn) [Ex. 37, isopropyl ((1S,4r)-4-(5-(2-(N-(tert-butyl)sulfamoyl)-4-(((((S)-pyrrolidin-2-yl)methoxy)carbonyl)amino)phenyl)thiazol-2-yl)cyclohexyl)carbamate] | 0.1 to 1 µM | – |
| CC(C)OC(=O)Nc1ccc(-c2cnc([C@H]3CC[C@@H](NC(=O)OC(C)C)CC3)s2)c(S(=O)(=O)NC(C)(C)C)c1 [Ex. 67B, cis-isopropyl N-[3-(tert-butylsulfamoyl)-4-[2-[4-(isopropoxycarbonylamino)cyclohexyl]thiazol-5-yl]phenyl]carbamate] | > 1 µM | – |
| CC(C)OC(=O)NC1CCC(c2ncc(-c3ccc(NC(=O)OC[C@H]4CCCN4)cc3S(=O)(=O)NC(C)(C)C)s2)CC1 (stereo partly drawn) [Ex. 36, isopropyl ((1R,4r)-4-(5-(2-(N-(tert-butyl)sulfamoyl)-4-(((((R)-pyrrolidin-2-yl)methoxy)carbonyl)amino)phenyl)thiazol-2-yl)cyclohexyl)carbamate] | 0.1 to 1 µM | – |
| CN1CCC[C@H]1COC(=O)Nc1ccc(-c2cnc(N3CCC(OC(=O)NCc4ccccc4)CC3)s2)c(S(=O)(=O)NC(C)(C)C)c1 [Ex. 1, (S)-(1-methylpyrrolidin-2-yl)methyl (4-(2-(4-((benzylcarbamoyl)oxy)piperidin-1-yl)thiazol-5-yl)-3-(N-(tert-butyl)sulfamoyl)phenyl)carbamate] | > 1 µM | – |
| CN1CCC[C@@H]1COC(=O)NC1CCC(c2ncc(-c3ccc(NC(=O)NCc4ccccc4)cc3S(=O)(=O)NC(C)(C)C)s2)CC1 (stereo partly drawn) [Ex. 11, [(2R)-1-methylpyrrolidin-2-yl]methyl N-[4-[5-[4-(benzylcarbamoylamino)-2-(tert-butylsulfamoyl)phenyl]thiazol-2-yl]cyclohexyl]carbamate] | 0.1 to 1 µM | – |
| CC(C)OC(=O)N[C@H]1CC[C@H](c2ncc(-c3ccc(NC(=O)OCC4CCNCC4)cc3S(=O)(=O)NC(C)(C)C)s2)CC1 [Ex. 33, trans-4-piperidylmethyl N-[3-(tert-butylsulfamoyl)-4-[2-[4-(isopropoxycarbonylamino)cyclohexyl]thiazol-5-yl]phenyl]carbamate] | > 1 µM | – |
| CN1CCC[C@@H]1COC(=O)Nc1ccc(-c2cnc(N3CCC(OC(=O)NCc4ccccc4)CC3)s2)c(S(=O)(=O)NC(C)(C)C)c1 [Ex. 2, [1-[5-[2-(tert-butylsulfamoyl)-4-[[(2R)-1-methylpyrrolidin-2-yl]methoxycarbonylamino]phenyl]thiazol-2-yl]-4-piperidyl] N-benzylcarbamate] | > 1 µM | – |
| CC(C)OC(=O)N[C@H]1CC[C@@H](c2ncc(-c3ccc(NC(=O)NCc4ccccc4)cc3S(=O)(=O)NC(C)(C)C)s2)CC1 [Ex. 66B, cis-isopropyl N-[4-[5-[4-(benzylcarbamoylamino)-2-(tert-butylsulfamoyl)phenyl]thiazol-2-yl]cyclohexyl]carbamate] | 0.1 to 1 µM | – |
| CC(C)OC(=O)Nc1ccc(-c2cnc(C3CCC(NC(=O)OC[C@@H]4CCCN4C)CC3)s2)c(S(=O)(=O)NC(C)(C)C)c1 (stereo partly drawn) [Ex. 9, isopropyl (3-(N-(tert-butyl)sulfamoyl)-4-(2-((1S,4r)-4-(((((S)-1-methylpyrrolidin-2-yl)methoxy)carbonyl)amino)cyclohexyl)thiazol-5-yl)phenyl)carbamate] | 0.1 to 1 µM | – |
| CC(C)OC(=O)N1CCN(c2ncc(-c3ccc(NC(=O)OCc4ccccc4)cc3S(=O)(=O)NC(C)(C)C)s2)CC1 [Ex. 6, isopropyl 4-[5-[4-(benzyloxycarbonylamino)-2-(tert-butylsulfamoyl)phenyl]thiazol-2-yl]piperazine-1-carboxylate] | > 1 µM | – |
| COc1cc(NC(=O)OC(C)C)cnc1-c1ncc(-c2ccc(NC(=O)OCC3CCNCC3)cc2S(=O)(=O)NC(C)(C)C)s1 [Ex. 56, 4-piperidylmethyl N-[3-(tert-butylsulfamoyl)-4-[2-[5-(isopropoxycarbonylamino)-3-methoxy-2-pyridyl]thiazol-5-yl]phenyl]carbamate] | 0.1 to 1 µM | – |
| CN1CCC[C@H]1COC(=O)N[C@H]1CC[C@H](c2ncc(-c3ccc(NC(=O)NCc4ccccc4)cc3S(=O)(=O)NC(C)(C)C)s2)CC1 [Ex. 12, ((S)-1-methylpyrrolidin-2-yl)methyl ((1r,4S)-4-(5-(4-(3-benzylureido)-2-(N-(tert-butyl)sulfamoyl)phenyl)thiazol-2-yl)cyclohexyl)carbamate] | 0.1 to 1 µM | – |
| CC(C)OC(=O)N[C@H]1CC[C@H](c2ncc(-c3ccc(NC(=O)NCc4ccncc4)cc3S(=O)(=O)NC(C)(C)C)s2)CC1 [Ex. 22, trans-isopropyl N-[4-[5-[2-(tert-butylsulfamoyl)-4-(4-pyridylmethylcarbamoylamino)phenyl]thiazol-2-yl]cyclohexyl]carbamate] | 0.1 to 1 µM | – |
| CC(C)OC(=O)N[C@H]1CC[C@H](c2ncc(-c3ccc(NC(=O)NCc4ccc(F)cc4)cc3S(=O)(=O)NC(C)(C)C)s2)CC1 [Ex. 23, isopropyl ((1r,4r)-4-(5-(2-(N-(tert-butyl)sulfamoyl)-4-(3-(4-fluorobenzyl)ureido)phenyl)thiazol-2-yl)cyclohexyl)carbamate] | ≤ 0.1 µM | – |
| CC(C)OC(=O)N[C@H]1CC[C@H](c2ncc(-c3ccc(NC(=O)NCc4cccnc4)cc3S(=O)(=O)NC(C)(C)C)s2)CC1 [Ex. 25, isopropyl ((1r,4r)-4-(5-(2-(N-(tert-butyl)sulfamoyl)-4-(3-(pyridin-3-ylmethyl)ureido)phenyl)thiazol-2-yl)cyclohexyl)carbamate] | ≤ 0.1 µM | – |
| CC(C)OC(=O)NC1CCN(c2ncc(-c3ccc(NC(=O)NCc4ccccc4)cc3S(=O)(=O)NC(C)(C)C)s2)CC1 [Ex. 68, isopropyl N-[1-[5-[4-(benzylcarbamoylamino)-2-(tert-butylsulfamoyl)phenyl]thiazol-2-yl]-4-piperidyl]carbamate] | 0.1 to 1 µM | – |
